Active and inactive are the calls of the source. The rule behind the calls is not given here.
Key:
[1] = tested on: A549; experiment: Antiproliferative activity against human A549 cells assessed as cell viability measured after 48 hrs incubation by MTT assay; type: functional, cell-based; details: A549, 48 h
[2] = tested on: HepG2; experiment: Antiproliferative activity against human HepG2 cells assessed as cell viability measured after 48 hrs incubation by MTT assay; type: functional, cell-based; details: HepG2, 48 h
[3] = tested on: 4T1; experiment: In vivo antitumor activity against mouse 4T1 cells transfected in BALB/c mouse assessed as tumor growth inhibition at 30 mg/kg, ip daily for 14 consecutive days relative to control; type: functional; details: 4T1, 336 h, time 14 day, read-out: TGI
[4] = tested on: 4T1; experiment: In vivo antitumor activity against mouse 4T1 cells transfected in BALB/c mouse assessed as tumor growth inhibition at 15 mg/kg, ip daily for 14 consecutive days relative to control; type: functional; details: time 14.0 day
[5] = Toxicity in healthy BALB/c mouse assessed as pathological changes in heart at 20 mg/kg, ip daily for 14 consecutive days by HE staining based assay; type: organism-based; details: in vivo, 336 h, time 14 day
[6] = tested on: MCF7; experiment: Antiproliferative activity against human MCF7 cells assessed as cell viability measured after 48 hrs incubation by MTT assay; type: functional, cell-based; details: MCF7, 48 h
[7] = tested on: MCF7; experiment: Induction of apoptosis in human MCF7 cells assessed as viable cells at 6 uM measured after 48 hrs incubation by Annexin V-FITC/PI double staining assay (reference value: 92.8%); type: functional; details: read-out: Activity
[8] = tested on: MCF7; experiment: Induction of apoptosis in human MCF7 cells assessed as early apoptotic cells at 6 uM measured after 48 hrs incubation by Annexin V-FITC/PI double staining assay (reference value: 5.73%); type: functional
[9] = tested on: MCF7; experiment: Induction of apoptosis in human MCF7 cells assessed as late apoptotic cells at 6 uM measured after 48 hrs incubation by Annexin V-FITC/PI double staining assay (reference value: 0.68%); type: functional
[10] = tested on: MCF7; experiment: Induction of apoptosis in human MCF7 cells assessed as necrotic cells at 6 uM measured after 48 hrs incubation by Annexin V-FITC/PI double staining assay (reference value: 0.77%); type: functional
[11] = tested on: MCF7; experiment: Induction of apoptosis in human MCF7 cells assessed as decrease in mitochondrial membrane potential by measuring increase in JC-1 monomer (green fluorescence) at 6 uM incubated for 48 hrs by JC-1 staining based flow cytometry analysis (reference value: 2.96%); type: functional; parameters: scale not given: the % may be the effect or the level left
[12] = tested on: MCF7; experiment: Induction of cell cycle arrest in human MCF7 cells assessed as accumulation of cells at G0/G1 phase at 6 uM measured after 48 hrs by PI staining based flow cytometry analysis (reference value: 58.42%); type: functional
[13] = tested on: MCF7; experiment: Induction of cell cycle arrest in human MCF7 cells assessed as accumulation of cells at S phase at 6 uM measured after 48 hrs by PI staining based flow cytometry analysis (reference value: 24.67%); type: functional
[14] = tested on: MCF7; experiment: Induction of cell cycle arrest in human MCF7 cells assessed as accumulation of cells at G2/M phase at 6 uM measured after 48 hrs by PI staining based flow cytometry analysis (reference value: 16.91%); type: functional

Compound: O=c1[nH]cc(F)c(=O)[nH]1 [FLUOROURACIL]
- IC50 [1]: 4.27 µM
- IC50 [2]: 10.7 µM
- inhibition in vivo at 30 mg/kg [3]: 86.1%
- TGI [4]: Active
- Activity [5]: Non-toxic

Compound: CC(C)[C@@H](C)/C=C/[C@@H](C)[C@H]1CC[C@@H]2[C@]1(C)CC[C@H]1[C@]23C=C[C@]2(C[C@@H](O)CC[C@]12C)OO3 [ERGOSTEROL PEROXIDE]
- IC50 [1]: 15 µM
- IC50 [2]: 18.1 µM
- IC50 [6]: 19.4 µM
- viability at 6 µM [7]: 90.1%
- Activity [8]: 8.97%
- Activity [9]: 0.45%
- Activity [10]: 0.47%
- Activity [11]: 11.3%
- Activity [12]: 61.61%
- Activity [13]: 18.74%
- Activity [14]: 19.66%

From ChEMBL document CHEMBL6078657, “Thiazolidinedione-based structure modification of ergosterol peroxide provides thiazolidinedione-conjugated derivatives as potent agents against breast cancer cells through a PI3K/AKT/mTOR pathway” (Bioorg Med Chem, 2025)
